Source: publication PMC9421653 (Journal of Medicinal Chemistry, 2022)

molecular target: T1, human GPR84 (Homo sapiens, UniProt P04899+Q9NQS5); assay: biochemical; assay type: biochemical; details: [35S]GTPγS assay; negative log of the IC50 in molar; mean ± SEM
T1 construct: expressed in transfected cells; host or cells: Flp-In T-REx 293 cells, doxycycline-induced; membrane preparations
T1 sequence (Q9NQS5+P04899 fused): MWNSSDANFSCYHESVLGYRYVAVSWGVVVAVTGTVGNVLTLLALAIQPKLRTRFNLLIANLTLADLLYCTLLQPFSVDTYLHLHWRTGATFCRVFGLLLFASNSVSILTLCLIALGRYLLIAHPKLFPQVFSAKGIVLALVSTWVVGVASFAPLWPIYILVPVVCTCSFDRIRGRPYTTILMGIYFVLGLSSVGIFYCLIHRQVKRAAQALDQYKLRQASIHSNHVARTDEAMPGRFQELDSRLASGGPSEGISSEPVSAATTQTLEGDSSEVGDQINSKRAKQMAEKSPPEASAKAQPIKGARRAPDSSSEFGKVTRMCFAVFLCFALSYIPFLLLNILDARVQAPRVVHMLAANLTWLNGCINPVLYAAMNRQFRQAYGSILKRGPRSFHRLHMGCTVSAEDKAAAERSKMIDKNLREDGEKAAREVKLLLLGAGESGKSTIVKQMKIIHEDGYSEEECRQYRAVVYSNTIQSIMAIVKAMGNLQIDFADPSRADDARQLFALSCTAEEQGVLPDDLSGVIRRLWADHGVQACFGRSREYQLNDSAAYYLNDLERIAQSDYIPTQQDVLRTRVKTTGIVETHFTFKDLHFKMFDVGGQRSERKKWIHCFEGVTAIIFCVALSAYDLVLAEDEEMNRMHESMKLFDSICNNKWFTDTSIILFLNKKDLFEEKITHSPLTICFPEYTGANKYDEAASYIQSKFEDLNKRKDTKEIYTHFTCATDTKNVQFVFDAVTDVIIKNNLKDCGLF

Compound | GTPγS (pIC50)
NC(=O)CNC(=O)c1ccc(-c2nnc(Cc3c[nH]c4ccccc34)nc2-c2ccccc2)cc1 [Compound 81, 4-(3-((1H-Indol-3-yl)methyl)-5-phenyl-1,2,4-triazin-6-yl)-N-(2-amino-2-oxoethyl)benzamide] | 5.80 ± 0.11
CC(=O)NCCNC(=O)c1ccc(-c2nnc(Cc3c[nH]c4ccccc34)nc2-c2ccccc2)cc1 [Compound 79, 4-(3-((1H-Indol-3-yl)methyl)-5-phenyl-1,2,4-triazin-6-yl)-N-(2-acetamidoethyl)benzamide] | 6.26 ± 0.06
3-((5-Phenyl-6-(pyrimidin-2-yl)-1,2,4-triazin-3-yl)methyl)-1H-indole or 3-((6-phenyl-5-(pyrimidin-2-yl)-1,2,4-triazin-3-yl)methyl)-1H-indole [Compound 32] | 6.58 ± 0.08
COc1ccc(-c2nnc(Cc3n[nH]c4ccccc34)nc2-c2ccc(OC)cc2)cc1 [Compound 14, 3-((5,6-Bis(4-methoxyphenyl)-1,2,4-triazin-3-yl)methyl)-1H-indazole] | 6.67 ± 0.03
c1csc(-c2nnc(Cc3c[nH]c4ccccc34)nc2-c2cccs2)c1 [Compound 11, 3-((5,6-Di(thiophen-2-yl)-1,2,4-triazin-3-yl)methyl)-1H-indole] | 7.62 ± 0.05
FC(F)(F)Oc1ccccc1-c1cnc(Cc2c[nH]c3ccccc23)nn1 [Compound 27, 3-((6-(2-(Trifluoromethoxy)phenyl)-1,2,4-triazin-3-yl)methyl)-1H-indole] | 5.59 ± 0.13
c1ccc(-c2nc(Cc3c[nH]c4cnccc34)nnc2-c2ccc(CN3CCOCC3)cc2)cc1 [Compound 64, 4-(4-(3-((1H-Pyrrolo[2,3-c]pyridin-3-yl)methyl)-5-phenyl-1,2,4-triazin-6-yl)benzyl)morpholine] | 8.33 ± 0.15
CN1CCN(C(=O)c2ccc(-c3nnc(Cc4c[nH]c5ccccc45)nc3-c3ccccc3)cc2)CC1=O [Compound 80, 4-(4-(3-((1H-Indol-3-yl)methyl)-5-phenyl-1,2,4-triazin-6-yl)benzoyl)-1-methylpiperazin-2-one] | 6.69 ± 0.04
CS(=O)(=O)NCc1ccc(-c2nnc(Cc3c[nH]c4ccccc34)nc2-c2ccccc2)cc1 [Compound 48, N-(4-(3-((1H-Indol-3-yl)methyl)-5-phenyl-1,2,4-triazin-6-yl)benzyl)methanesulfonamide] | 7.61 ± 0.06
c1ccc(-c2nnc(CCc3cccnc3)nc2-c2ccccc2)cc1 [Compound 22, 5,6-Diphenyl-3-(2-(pyridin-3-yl)ethyl)-1,2,4-triazine] | 5.00 ± 0.17
COC(=O)c1ccc(-c2nc(Cc3c[nH]c4ccccc34)nnc2-c2ccccc2)cc1 [Compound 49, Methyl 4-(3-((1H-Indol-3-yl)methyl)-6-phenyl-1,2,4-triazin-5-yl)benzoate] | 6.74 ± 0.05
CN1CCN(C(=O)c2ccc(-c3nnc(Cc4c[nH]c5ccccc45)nc3-c3ccccc3)cc2)CC1 [Compound 77, (4-(3-((1H-Indol-3-yl)methyl)-5-phenyl-1,2,4-triazin-6-yl)phenyl)(4-methylpiperazin-1-yl)methanone] | 5.95 ± 0.10
CC(=O)NCc1ccc(-c2nnc(Cc3c[nH]c4ccccc34)nc2-c2ccccc2)cc1 [Compound 46, N-(4-(3-((1H-Indol-3-yl)methyl)-5-phenyl-1,2,4-triazin-6-yl)benzyl)acetamide] | 7.98 ± 0.06
c1ccc(-c2nc(Cc3c[nH]c4cnccc34)nnc2-c2ccnnc2)cc1 [Compound 62, 3-((5-Phenyl-6-(pyridazin-4-yl)-1,2,4-triazin-3-yl)methyl)-1H-pyrrolo[2,3-c]pyridine] | 6.21 ± 0.04
c1ccc(-c2nnc(Cc3c[nH]c4ccccc34)nc2-c2ccccn2)nc1 [Compound 8, 3-((5,6-Di(pyridin-2-yl)-1,2,4-triazin-3-yl)methyl)-1H-indole] | 5.70 ± 0.21
c1ccc(-c2nnc(Cc3c[nH]c4ccccc34)nc2-c2ccc(CN3CCOCC3)cc2)cc1 [Compound 41, 4-(4-(3-((1H-Indol-3-yl)methyl)-6-phenyl-1,2,4-triazin-5-yl)benzyl)morpholine] | 7.51 ± 0.28
CCCCCc1nnc(-c2ccccc2)c(-c2ccccc2)n1 [Compound 21, 3-Pentyl-5,6-diphenyl-1,2,4-triazine] | 5.12 ± 0.05
Cc1cc(Nc2nnc(-c3ccccc3)c(-c3ccccc3)n2)n[nH]1 [Compound 25, N-(5-Methyl-1H-pyrazol-3-yl)-5,6-diphenyl-1,2,4-triazin-3-amine] | <4.70
c1ccc(-c2nnc(Cc3c[nH]c4cnccc34)nc2-c2cnccn2)cc1 [Compound 59, 3-((6-Phenyl-5-(pyrazin-2-yl)-1,2,4-triazin-3-yl)methyl)-1H-pyrrolo[2,3-c]pyridine] | 5.38 ± 0.12
CC(=O)OCc1ccc(-c2nnc(Cc3c[nH]c4ccccc34)nc2-c2ccccc2)cc1 [Compound 38, 4-(3-((1H-Indol-3-yl)methyl)-5-phenyl-1,2,4-triazin-6-yl)benzyl Acetate] | 8.06 ± 0.27
c1ccc(-c2nnc(NCc3cccnc3)nc2-c2ccccc2)cc1 [Compound 24, 5,6-Diphenyl-N-(pyridin-3-ylmethyl)-1,2,4-triazin-3-amine] | 5.47 ± 0.05

Compound | GTPγS (pIC50)
CC(=O)NCc1ccc(-c2nc(Cc3c[nH]c4ccccc34)nnc2-c2ccccc2)cc1 [Compound 45, N-(4-(3-((1H-Indol-3-yl)methyl)-6-phenyl-1,2,4-triazin-5-yl)benzyl)acetamide] | 6.93 ± 0.06
COC(=O)c1ccc(-c2nnc(Cc3c[nH]c4ccccc34)nc2-c2ccc(C(=O)OC)cc2)cc1 [Compound 10, Methyl 4-[3-(1H-Indol-3-ylmethyl)-6-(4-methoxycarbonylphenyl)-1,2,4-triazin-5-yl]benzoate] | 6.67 ± 0.08
CC(C)c1nnc(Cc2c[nH]c3ccccc23)nc1C(C)C [Compound 9, 3-((5,6-Diisopropyl-1,2,4-triazin-3-yl)methyl)-1H-indole] | 5.38 ± 0.05
CNC(=O)c1ccc(-c2nnc(Cc3c[nH]c4ccncc34)nc2-c2ccccc2)cc1 [Compound 72, 4-(3-((1H-Pyrrolo[3,2-c]pyridin-3-yl)methyl)-5-phenyl-1,2,4-triazin-6-yl)-N-methylbenzamide] | 6.35 ± 0.06
CC(=O)OCc1ccc(-c2nc(Cc3c[nH]c4ccccc34)nnc2-c2ccccc2)cc1 [Compound 37, 4-(3-((1H-Indol-3-yl)methyl)-6-phenyl-1,2,4-triazin-5-yl)benzyl Acetate] | 8.30 ± 0.35
Fc1ccc2c(Cc3nnc(-c4ccccc4)c(-c4ccccc4)n3)c[nH]c2c1 [Compound 15, 3-((5,6-Diphenyl-1,2,4-triazin-3-yl)methyl)-6-fluoro-1H-indole] | 6.65 ± 0.03
CS(=O)(=O)NCc1ccc(-c2nc(Cc3c[nH]c4ccccc34)nnc2-c2ccccc2)cc1 [Compound 47, N-(4-(3-((1H-indol-3-yl)methyl)-6-phenyl-1,2,4-triazin-5-yl)benzyl)methanesulfonamide] | 6.72 ± 0.06
Fc1ccc(-c2nnc(Cc3c[nH]c4ccccc34)nc2-c2ccc(F)cc2)cc1 [Compound 5, 3-((5,6-Bis(4-fluorophenyl)-1,2,4-triazin-3-yl)methyl)-1H-indole] | 7.81 ± 0.04
Methyl 3-(3-((1H-Indol-3-yl)methyl)-5-phenyl-1,2,4-triazin-6-yl)benzoate [Compound 53] | 6.40 ± 0.05
COC(=O)c1ccc(-c2nc(Cc3c[nH]c4cnccc34)nnc2-c2ccccc2)cc1 [Compound 65, Methyl 4-(3-((1H-Pyrrolo[2,3-c]pyridin-3-yl)methyl)-6-phenyl-1,2,4-triazin-5-yl)benzoate] | 7.37 ± 0.33
O=C(O)c1cccc(-c2nc(Cc3c[nH]c4ccccc34)nnc2-c2ccccc2)c1 [Compound 55, 3-(3-((1H-Indol-3-yl)methyl)-6-phenyl-1,2,4-triazin-5-yl)benzoic Acid] | 4.99 ± 0.32
COc1ccc(-c2nnc(Cc3c[nH]c4ccc(F)cc34)nc2-c2ccc(OC)cc2)cc1 [Compound 12, 3-((5,6-Bis(4-methoxyphenyl)-1,2,4-triazin-3-yl)methyl)-5-fluoro-1H-indole] | 6.92 ± 0.07
Brc1ccc(-c2nnc(Cc3c[nH]c4ccccc34)nc2-c2ccc(Br)cc2)cc1 [Compound 7, 3-((5,6-Bis(4-bromophenyl)-1,2,4-triazin-3-yl)methyl)-1H-indole] | 7.60 ± 0.02
Cc1ccc2c(Cc3nnc(-c4ccccc4)c(-c4ccccc4)n3)c[nH]c2c1 [Compound 16, 3-((5,6-Diphenyl-1,2,4-triazin-3-yl)methyl)-6-methyl-1H-indole] | <4.70
COc1ccc(-c2nnc(Cc3cn(C)c4ccccc34)nc2-c2ccc(OC)cc2)cc1 [Compound 13, 3-((5,6-Bis(4-methoxyphenyl)-1,2,4-triazin-3-yl)methyl)-1-methyl-1H-indole] | <4.70
c1ccc(-c2nnc(Cc3c[nH]c4cnccc34)nc2-c2ccc(CN3CCOCC3)cc2)cc1 [Compound 63, 4-(4-(3-((1H-Pyrrolo[2,3-c]pyridin-3-yl)methyl)-6-phenyl-1,2,4-triazin-5-yl)benzyl)morpholine] | 7.27 ± 0.06
Methyl 3-(3-((1H-Indol-3-yl)methyl)-6-phenyl-1,2,4-triazin-5-yl)benzoate [Compound 54] | 6.94 ± 0.03
c1ccc(-c2nnc(Cc3c[nH]c4cnccc34)nc2-c2ccnnc2)cc1 [Compound 61, 3-((6-Phenyl-5-(pyridazin-4-yl)-1,2,4-triazin-3-yl)methyl)-1H-pyrrolo[2,3-c]pyridine] | 5.84 ± 0.10
c1ccc(-c2nc(Cc3c[nH]c4ccccc34)nnc2-c2cccnn2)cc1 [Compound 31, 3-((5-Phenyl-6-(pyridazin-3-yl)-1,2,4-triazin-3-yl)methyl)-1H-indole] | 6.85 ± 0.03
c1ccc(-c2nnc(Cc3cnc4ccccn34)nc2-c2ccccc2)cc1 [Compound 20, 3-((5,6-Diphenyl-1,2,4-triazin-3-yl)methyl)imidazo[1,2-a]pyridine] | 5.44 ± 0.09
